This test has as its system Adenosine Diphosphate (ADP)-Induced Platelet Aggregation. The test is described as follows: Inhibitory Effect on Adenosine Diphosphate (ADP)-Induced Platelet Aggregation (turbidimetric method, platelet rich plasma). To be noted: Oryctolagus cuniculus; rabbit platelet rich plasma; aggregation induced by 20 μM ADP; read-out: concentration at which the compound inhibited 50% of platelet aggregation (IC50). The format is cell-based, Japanese White rabbit. Here is the method: Platelet rich plasma (PRP) was prepared from Japanese White rabbit blood drawn from the carotid artery into a syringe containing 3.8% sodium citrate (1/10) volume, and centrifuged at 400×g for 10 min. Platelet aggregation in PRP was induced by 20 μM ADP and determined by the turbidimetric method using an aggregomater (Hema-Tracer: Niko Bioscience Co., Ltd., Japan).
Take `COC(=O)c1cc2c(cc1N1CCC(O)CC1)CCC(=O)N2` [Compound 8, 6-(4-Hydroxypiperidino)-7-methoxycarbonyl-3,4-dihydrocarbostyril]: the IC50 stood at 42 µM.

Turning to `O=C1CCc2cc(N3CCC(O)CC3)c(Br)cc2N1` [Compound 3, 7-Bromo-6-(4-hydroxypiperidino)-3,4-dihydrocarbostyril], the IC50 was determined as 26 µM.

Take `Cc1cc2c(cc1N1CCC(O)CC1)CCC(=O)N2` [Compound 9, 6-(4-Hydroxypiperidino)-7-methyl-3,4-dihydrocarbostyril]: the IC50 was 130 µM.

Turning to `N#Cc1cc2c(cc1N1CCC(O)CC1)CCC(=O)N2` [Compound 7, 7-Cyano-6-(4-hydroxypiperidino)-3,4-dihydrocarbostyril], the IC50 turned out to be 18 µM.

In the case of `O=C1CCc2cc(N3CCC(O)CC3)c(C(F)(F)F)cc2N1` [Compound 12, 6-(4-Hydroxypiperidino)-7-trifluoromethyl-3,4-dihydrocarbostyril], the IC50 turned out to be 39 µM.

Consider `O=C1CCc2c(ccc(N3CCC(O)CC3)c2[N+](=O)[O-])N1` [Compound 2, 6-(4-Hydroxypiperidino)-5-nitro-3,4-dihydrocarbostyril], for which the IC50 worked out at 55 µM.

With `O=C1CCc2c(ccc(N3CCC(O)CC3)c2Cl)N1` [Compound 6, 5-Chloro-6-(4-hydroxypiperidino)-3,4-dihydrocarbostyril], the IC50 came to 290 µM.

For the compound `O=C1CCc2c(ccc(N3CCC(O)CC3)c2Br)N1` [Compound 4, 5-Bromo-6-(4-hydroxypiperidino)-3,4-dihydrocarbostyril], the IC50 turned out to be 140 µM.

`O=C1CCc2cc(N3CCC(O)CC3)c([N+](=O)[O-])cc2N1` [Compound 1, 6-(4-Hydroxypiperidino)-7-nitro-3,4-dihydrocarbostyril]: the IC50 is 37 µM.

Consider `O=C1CCc2cc(N3CCC(O)CC3)c(F)cc2N1` [Compound 10, 7-Fluoro-6-(4-hydroxypiperidino)-3,4-dihydrocarbostyril], for which the IC50 is 51 µM.

With `CCC(=O)OC1CCN(c2cc3c(cc2[N+](=O)[O-])NC(=O)CC3)CC1` [Compound 11, 6-(4-Propionyloxypiperidino)-7-nitro-3,4-dihydrocabostyril], the IC50 was 37 µM.

In the case of `O=C1CCc2cc(N3CCC(O)CC3)c(Cl)cc2N1` [Compound 5, 7-Chloro-6-(4-hydroxypiperidino)-3,4-dihydrocarbostyril], the IC50 is 26 µM.

Source of the values: patent US5294718A, “Piperidino-3,4-dihydrocarbostyril compounds” (Kissei Pharmaceutical Co., Ltd., priority 1993, dated 1994).
